In PubChem BioAssay (NCI):
Several values for one entry are separate records, joined by “and”; a condition that tells them apart may be missing. Equal values may be shown once.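 Dose response: 5 concentrations. Exposure: 48 h. Format: 96-well plates. Endpoint: linear interpolation; highest concentration if not reached. The concentration for 50% growth inhibition is given as GI50. TGI: concentration producing complete growth inhibition.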

Assays:
Experiment in all cases: NCI-60 cell line screen, 48 h
[1] = system: SK-MEL-5 melanoma
[2] = system: HOP-62 NSCLC
[3] = system: ACHN renal
[4] = system: MDA-MB-435
[5] = system: T-47D breast
[6] = system: COLO 205 colon
[7] = system: HOP-92 NSCLC
[8] = system: SF-295 CNS
[9] = system: HCT-15 colon
[10] = system: RXF 393 renal

SMILES	GI50 [1]	TGI [1]	GI50 [2]	TGI [2]	GI50 [3]	TGI [3]	GI50 [4]	TGI [4]	GI50 [5]	TGI [5]	GI50 [6]	TGI [6]	GI50 [7]	TGI [7]	GI50 [8]	TGI [8]	GI50 [9]	TGI [9]	GI50 [10]	TGI [10]
CC(=O)c1c(C(F)(F)F)n([O-])c2ccccc2[n+]1=O	0.494 µM	1.87 µM	2.34 µM	11.9 µM	1.05 µM	12.3 µM	1.2 µM	4.03 µM	0.748 µM	4.02 µM	2.16 µM	7.27 µM	1.22 µM	4.35 µM	1.07 µM	4.53 µM	1.29 µM	50.4 µM	1.57 µM	6.03 µM
CC1CC(C)CC(C)C(O)/C(C#N)=C/C=C/CC(C2CCCC2C(=O)O)OC(=O)CC(O)C(C)C1 (stereo not drawn)	0.0282 µM and 0.0232 µM	0.122 µM and 0.0932 µM	0.0183 µM	0.108 µM and 0.0648 µM	0.0326 µM	0.148 µM and 0.181 µM	0.0281 µM	0.0871 µM and 0.0731 µM	0.00595 µM	0.049 µM and < 0.0166 µM	0.0565 µM	0.27 µM and 0.412 µM		0.0513 µM and 0.0143 µM		0.203 µM and 0.222 µM	0.0229 µM	0.114 µM and 0.104 µM	0.00363 µM	0.0304 µM and 0.0273 µM
O=C(Nc1cccc(Cl)c1)Nn1cnnc1	> 50 µM	> 100 µM	> 50 µM	> 100 µM	> 50 µM	> 100 µM	> 50 µM	> 100 µM	> 50 µM	> 100 µM	> 50 µM	> 100 µM	12.7 µM	50 µM and > 100 µM	> 50 µM	> 100 µM	> 50 µM	> 100 µM	> 50 µM	> 100 µM
N#C[Se]Cc1cc(-c2ccccc2)n(-c2ccc(S(N)(=O)=O)cc2)n1					1.98 µM	4.22 µM	0.605 µM	2.45 µM	2.19 µM	7.28 µM	1.93 µM	3.61 µM	2.1 µM	4.61 µM	0.444 µM	2.48 µM	2.05 µM	5.55 µM	0.542 µM	1.92 µM
CC(=O)Nc1ccc(-c2cc(C(=O)O)c3cc4ccccc4cc3n2)cc1		> 100 µM		> 100 µM		> 100 µM		> 100 µM		> 100 µM		> 100 µM		> 100 µM		> 100 µM		> 100 µM		> 100 µM
Nc1nc2ccc(-c3nc4ccc5[nH]ncc5c4c4c3CCC4)cc2s1	0.238 µM	1.68 µM	0.415 µM	13.6 µM	0.321 µM	6.58 µM	0.0673 µM	0.259 µM	0.408 µM	15.3 µM	0.306 µM	7.14 µM	0.66 µM	6.87 µM	0.234 µM	7.95 µM	0.193 µM	7.66 µM	0.238 µM	1.77 µM
C[C@@H](NC(C#N)c1ccco1)c1ccccc1 (stereo partly drawn)		> 100 µM		> 100 µM		> 100 µM		> 100 µM		> 100 µM				> 100 µM		> 100 µM		> 100 µM		> 100 µM
CCCN1C(=O)NC(=O)C(CC)(N2C(=O)c3c(F)c(F)c(F)c(F)c3C2=O)C1=O (stereo not drawn)	2.37 µM	7.71 µM	2.04 µM	4.4 µM	1.9 µM	3.69 µM	2.25 µM	6.52 µM	2.01 µM	4.8 µM	1.74 µM	3.29 µM	1.68 µM	3.37 µM	3.93 µM	14.6 µM	1.85 µM	6.82 µM	2.28 µM	4.45 µM
CO/N=C(\COc1ccc2c(c1)[nH]c1ccccc12)c1ccc(OC)cc1	15.7 µM	> 100 µM	6.26 µM	64 µM	18.8 µM	> 100 µM	43.3 µM	> 100 µM	> 100 µM	> 100 µM	92.3 µM	> 100 µM	11.9 µM	> 100 µM	13.6 µM	99.2 µM	> 100 µM	> 100 µM	15.8 µM	> 100 µM
CCN1C(=O)N(CC)C2C1NN=c1s/c(=C\c3ccc(Cl)cc3Cl)c(=O)n12 (stereo not drawn)	0.0247 µM	0.0763 µM	0.0469 µM	> 72.8 µM	0.0513 µM	> 51.2 µM	0.0206 µM	0.0572 µM	15.7 µM	99.3 µM	0.0263 µM	0.0748 µM	0.275 µM	64 µM	0.0315 µM	27.1 µM	0.035 µM	> 100 µM	0.0327 µM	14.7 µM
O=S(=O)(Nc1ccc(Br)cc1)c1ccc(-c2cnc(C3CC3)o2)cc1	2.49 µM	11.6 µM	2.37 µM	16.6 µM	4.9 µM	17.5 µM	0.239 µM	0.646 µM	2.84 µM	16.9 µM	2.53 µM	12.1 µM	3.39 µM	18.6 µM	1.13 µM	11.8 µM	0.644 µM	14.2 µM	1.61 µM	7.6 µM
N=C1C(O)C2(I)c3ccccc3N3C(=N)C(O)C4c5ccccc5N1C4C32 (stereo not drawn)		> 100 µM		> 100 µM		> 100 µM		37.9 µM		> 100 µM		> 100 µM		> 100 µM		> 100 µM		> 100 µM		> 100 µM
CC1=C([Se]CC(OC(=O)CC[Se]c2ccccc2)C(=O)NC(C)(C)C)C(=O)c2ccccc2C1=O (stereo not drawn)	1.82 µM	3.27 µM	0.357 µM	1.7 µM	1.86 µM	3.69 µM	2.21 µM	4.7 µM	1.68 µM	3.88 µM	1.6 µM	3.13 µM	1.55 µM	2.92 µM	0.316 µM	1.37 µM	2.47 µM	5.86 µM		
C=C1CCC2C3(C)COC(C)(C)OC3CCC2(C)C1C/C=C1/C(=O)OCC1OC(C)=O (stereo not drawn)	4.8 µM	16.4 µM	11.9 µM	25 µM	3.12 µM	10.5 µM	2.54 µM	11.3 µM	2.96 µM	11.5 µM	1.72 µM	3.43 µM	10.8 µM	24.2 µM	11.5 µM	25.9 µM	1.61 µM	4.19 µM	1.6 µM	3.32 µM
C=CCc1c(Cl)nc(Cl)nc1Cl		0.301 µM		1.07 µM		1.2 µM		1.4 µM		0.979 µM		0.696 µM		0.749 µM		3.94 µM		0.938 µM		0.601 µM
CN1CCN(C(=S)N(C)C(=O)c2ccco2)CC1		> 100 µM				> 100 µM		> 100 µM		> 100 µM		> 100 µM		> 100 µM		> 100 µM		> 100 µM		> 100 µM
Cn1ncc(-c2ccc3c(=O)[nH]nc(CN)c3c2)c1-c1c(F)c(Cl)cc(OC2CC2)c1C#N	12 µM and 14.3 µM	24.4 µM and 27.5 µM	16.1 µM and 13.4 µM	33.7 µM and 27.8 µM	15.8 µM and 15.3 µM	30.5 µM and 28.9 µM	11.9 µM and 10.7 µM	24.7 µM and 22.9 µM	12.3 µM and 6.06 µM	36.5 µM and 28.4 µM	11.8 µM and 10.9 µM	26.9 µM and 25.1 µM	12.9 µM and 10.1 µM	31.1 µM and 25.5 µM	14.3 µM and 13.3 µM	28.4 µM and 27.2 µM	14.7 µM and 14.3 µM	30 µM and 28.9 µM	6.22 µM and 2.24 µM	21.4 µM and 12.9 µM
N#CC(C#N)=C/C=C(\Cl)c1ccc(Cl)cc1	3.13 µM	11.5 µM	14.3 µM	31.3 µM	9.96 µM	37.2 µM	2.73 µM	10 µM	13.8 µM	49.1 µM	7.72 µM	> 52.1 µM	3.81 µM	11.4 µM	9.73 µM	36.4 µM	4.5 µM	> 42.2 µM	7.63 µM	34.9 µM
C1CSCCCSCCCSCCCSCCCSCCCSCCCSCCCSC1		> 100 µM		> 100 µM		> 100 µM		> 100 µM		> 100 µM		> 100 µM		> 100 µM		> 100 µM		> 100 µM		> 100 µM
O=C(c1ccc2ccccc2c1)c1c(C(F)(F)F)n([O-])c2ccc(C(F)(F)F)cc2[n+]1=O	0.927 µM	2.37 µM	1.95 µM	3.58 µM	0.566 µM	1.71 µM	1.75 µM	3.35 µM	0.755 µM	2.31 µM	0.724 µM	1.83 µM	0.899 µM	2.28 µM	1.29 µM	2.74 µM	0.732 µM	2.07 µM	0.974 µM	2.54 µM
CC(CO)Nc1cc(-c2[nH]c3cccnc3c2-c2ccc(F)cc2)ccn1 (stereo not drawn)	10.3 µM	> 25 µM	> 25 µM	> 25 µM	3.99 µM	> 25 µM	> 22.4 µM	> 25 µM	17.1 µM	> 25 µM	13.8 µM	> 25 µM	2.74 µM	> 25 µM	> 25 µM	> 25 µM	10.4 µM	> 25 µM	12.5 µM	> 25 µM
CN(C)CCNC(=O)Cn1ccc(=O)c2cc([N+](=O)[O-])ccc21		> 100 µM		> 100 µM		> 100 µM		> 100 µM		> 100 µM		> 100 µM		> 100 µM		> 100 µM		> 100 µM		> 100 µM
CNC(=S)Nc1ccc(OC)c2ccccc12		> 10 µM		> 10 µM		> 10 µM		> 10 µM		> 10 µM		> 10 µM		> 10 µM		5.77 µM		> 10 µM		
Cc1c2cnccc2c(C)c2c1c1cc(C#N)ccc1n2C	0.224 µM	0.591 µM	0.115 µM	1.42 µM	0.0457 µM	0.456 µM	0.271 µM	0.899 µM	0.303 µM		0.18 µM	1.08 µM	0.18 µM	0.708 µM	0.201 µM	0.859 µM	0.0966 µM	0.85 µM	0.128 µM	0.393 µM
CN(C)c1cc2ccccc2oc1=O		> 100 µM		> 100 µM		> 100 µM		> 100 µM		> 100 µM		> 100 µM		> 100 µM		> 100 µM		> 100 µM		> 100 µM
Nc1ncn([C@@H]2S[C@H](CO)[C@@H](O)[C@@H]2F)c(=O)n1	0.827 µM	> 100 µM	0.951 µM	> 100 µM	0.297 µM		0.692 µM	> 100 µM	> 100 µM	> 100 µM	3.57 µM	> 100 µM	0.623 µM	> 100 µM	17.7 µM	> 100 µM	2.7 µM	> 100 µM	7.31 µM	> 100 µM
Cc1ccc2cnc(N)c(C#Cc3cc(C(=O)Nc4ccc(CN5CCN(C)CC5)c(C(F)(F)F)c4)cnc3C)c2c1	1.08 µM	2.49 µM	0.887 µM	2.76 µM	0.449 µM	1.06 µM	0.262 µM	1.01 µM	9.23 µM	36.7 µM	0.296 µM	1.16 µM	0.217 µM	1.64 µM	0.771 µM	1.75 µM	0.385 µM	1.17 µM	0.676 µM	1.35 µM
COc1cccc(-c2nc3cc(NC(=O)c4ccc(Cl)c(C#N)c4)ccc3o2)c1	1.79 µM	4.2 µM	12.9 µM	> 100 µM			1.37 µM	2.85 µM	3.75 µM	> 100 µM	5.77 µM	> 100 µM	3.01 µM	8.56 µM	11.7 µM	> 100 µM	> 100 µM	> 100 µM	3.12 µM	9.45 µM
CC1=C2C(=C[C@@](C)(CO)[C@@H]2OC(=O)N(C)CCN(C)C(=O)OC(C)(C)C)C(=O)[C@](C)(O)C12CC2	8.84 µM	16.4 µM			2.6 µM	32.6 µM	9.74 µM	23.1 µM	5.05 µM	35.2 µM	5.27 µM	14.3 µM	8.08 µM	25.1 µM	1.8 µM	33.1 µM	3.98 µM	> 50 µM	1.22 µM	4.06 µM
